Data taken from patent US4192896A, “Method of using dialkylphenols in the treatment of mycoplasma diseases” (priority 1979, dated 1980).

Key:
M. pneumoniae [1] = experiment: Growth of logarithmically growing cultures of M. pneumoniae in liquid culture with 2,4-DMP (CFU/ml); assay type: cell-based, Mycoplasma pneumoniae, strain PI 1428
M. pneumoniae [2] = experiment: Relative activity of hamster tracheal explants infected with M. pneumoniae; assay type: cell-based; conditions: for Relative Activity Days Following Infection With M. Pneumoniae / Relative Activity 7 days post infection: infecting titer 6 × 10^6 CFU/ml; for Relative Activity 7 days post infection: Table 4
Description: Adult golden hamsters (approximately 140 g. male and female) were used as the tissue source. Animals appearing to be disease-free were selected. Tracheas were removed aseptically and sliced into rings. The rings were rinsed and then transfered into sterile Petri dishes containing a shallow layer of minimal essential medium (MEM, with glutamine, NaHCO3, 10% horse serum and 500 units of penicillin G/ml). These organ cultures were incubated for 24 hours at 36° C. in 5% carbon dioxide and then scored for "relative activity" (RA), a measure of explant viability. "Relative Activity" (0 to 300) is the product of the percentage of the epithelial layer which is intact (0 to 100) and the relative vigor of ciliary beating (0 to 3).
The trachea rings were infected with M. pneumonia, strain PI 1428 (originally obtained from Dr. Robert Chanock, National Institutes of Health, Bethesda, Md.) which was used in the 10th to 12th passage and was grown on G-199 medium. Tracheal explants were infected with logarithmically growing cells using methods described by Gabridge, et al. Except where otherwise noted, groups of from 3 to 6 rings were preincubated for one hour in MEM with or without an appropriate amount of 2,4-dimethylphenol prior to the addition of mycoplasmas. Following exposure to M. pneumoniae for two hours, the rings were rinsed twice in phosphate buffered saline and then placed in a sterile Petri dish containing MEM and, where indicated, the required amount of 2,4-dimethylphenol or 2,4-DMP as used herein. Cultures were incubated at 36° in 5% carbon dioxide and scored daily for RA.
Infection Studies: M. pneumoniae attaches to the surface (as used herein the surface refers to in luminal epithelial lining) of the tracheal tissue within an hour or two following exposure. Decreases in the vigor of ciliary activity and loss of epithelial cells are evident within 24 to 48 hours post-infection. In most cases, little or no ciliary activity remains by the sixth or seventh day.
Time Course: In the studies reported thus far, tracheal explants were pretreated with 2,4-DMP for one hour before exposure to M. pneumoniae. Some insight into the nature, that is, the site or mode of action, of this protective phenomenon may be gained by altering the time at which 2,4-DMP is added to the culture media.

With Cc1ccc(O)c(C)c1 [2,4-DMP, 2,4-dimethylphenol] the “CFU/ml following days of culture” value (M. pneumoniae [1]; 10^-3 moles/liter, day 0) was 2 × 10^4 CFU/ml, the “CFU/ml following days of culture” value (M. pneumoniae [1]; 10^-3 moles/liter, day 1) was 5 × 10^4 CFU/ml and the “CFU/ml following days of culture” value (M. pneumoniae [1]; 10^-3 moles/liter, day 2) was 6.3 × 10^4 CFU/ml. The “CFU/ml following days of culture” value (M. pneumoniae [1]; 10^-3 moles/liter, day 3) was 6.5 × 10^4 CFU/ml, the “CFU/ml following days of culture” value (M. pneumoniae [1]; 10^-3 moles/liter, day 4) was 6.7 × 10^4 CFU/ml and the “CFU/ml following days of culture” value (M. pneumoniae [1]; 10^-3 moles/liter, day 5) was 4.1 × 10^4 CFU/ml. The “CFU/ml following days of culture” value (M. pneumoniae [1]; 10^-3 moles/liter, day 6) was 3.3 × 10^4 CFU/ml, the “CFU/ml following days of culture” value (M. pneumoniae [1]; 10^-3 moles/liter, day 7) was 1.5 × 10^4 CFU/ml and the “CFU/ml following days of culture” value (M. pneumoniae [1]; 10^-5 moles/liter, day 0) was 2 × 10^4 CFU/ml. The “CFU/ml following days of culture” value (M. pneumoniae [1]; 10^-5 moles/liter, day 1) was 1.2 × 10^5 CFU/ml, the “CFU/ml following days of culture” value (M. pneumoniae [1]; 10^-5 moles/liter, day 2) was 7.5 × 10^6 CFU/ml and the “CFU/ml following days of culture” value (M. pneumoniae [1]; 10^-5 moles/liter, day 3) was 2.5 × 10^7 CFU/ml. For the same compound, the “CFU/ml following days of culture” value (M. pneumoniae [1]; 10^-5 moles/liter, day 4) was 6.0 × 10^7 CFU/ml, the “CFU/ml following days of culture” value (M. pneumoniae [1]; 10^-5 moles/liter, day 6) was 1.5 × 10^7 CFU/ml and the “CFU/ml following days of culture” value (M. pneumoniae [1]; 10^-5 moles/liter, day 7) was 4.3 × 10^6 CFU/ml. The “CFU/ml following days of culture” value (M. pneumoniae [1]; 10^-8 moles/liter, day 0) was 2 × 10^4 CFU/ml, the “CFU/ml following days of culture” value (M. pneumoniae [1]; 10^-8 moles/liter, day 1) was 1.5 × 10^5 CFU/ml and the “CFU/ml following days of culture” value (M. pneumoniae [1]; 10^-8 moles/liter, day 2) was 7.2 × 10^6 CFU/ml. The “CFU/ml following days of culture” value (M. pneumoniae [1]; 10^-8 moles/liter, day 3) was 2.4 × 10^7 CFU/ml, the “CFU/ml following days of culture” value (M. pneumoniae [1]; 10^-8 moles/liter, day 4) was 6.3 × 10^7 CFU/ml and the “CFU/ml following days of culture” value (M. pneumoniae [1]; 10^-8 moles/liter, day 5) was 5.2 × 10^7 CFU/ml. The “CFU/ml following days of culture” value (M. pneumoniae [1]; 10^-8 moles/liter, day 6) was 1.1 × 10^7 CFU/ml, the “CFU/ml following days of culture” value (M. pneumoniae [1]; 10^-8 moles/liter, day 7) was 4.2 × 10^6 CFU/ml and the “effect on mycoplasmal growth” value (M. pneumoniae [1]; higher concentrations (10^-3 M)) was “inhibit mycoplasmal growth”. The “effect on growth of the organism” value (M. pneumoniae [1]; lower amounts (10^-5 M)) was “little or no effect on the growth of the organism”, the “Relative Activity Days Following Infection With M. Pneumoniae” value (M. pneumoniae [2]; 10^-8 moles/liter, day 1) was 270 ± 0 and the “Relative Activity Days Following Infection With M. Pneumoniae” value (M. pneumoniae [2]; 10^-8 moles/liter, day 2) was 270 ± 0. The “Relative Activity Days Following Infection With M. Pneumoniae” value (M. pneumoniae [2]; 10^-8 moles/liter, day 3) was 260 ± 16, the “Relative Activity Days Following Infection With M. Pneumoniae” value (M. pneumoniae [2]; 10^-8 moles/liter, day 4) was 260 ± 16 and the “Relative Activity Days Following Infection With M. Pneumoniae” value (M. pneumoniae [2]; 10^-8 moles/liter, day 5) was 260 ± 16. The “Relative Activity Days Following Infection With M. Pneumoniae” value (M. pneumoniae [2]; 10^-8 moles/liter, day 6) was 255 ± 16, the “Relative Activity Days Following Infection With M. Pneumoniae” value (M. pneumoniae [2]; 10^-8 moles/liter, day 7) was 255 ± 16 and the “Relative Activity Days Following Infection With M. Pneumoniae” value (M. pneumoniae [2]; 10^-10 moles/liter, day 1) was 260 ± 16. The “Relative Activity Days Following Infection With M. Pneumoniae” value (M. pneumoniae [2]; 10^-10 moles/liter, day 2) was 255 ± 16, the “Relative Activity Days Following Infection With M. Pneumoniae” value (M. pneumoniae [2]; 10^-10 moles/liter, day 3) was 240 ± 19 and the “Relative Activity Days Following Infection With M. Pneumoniae” value (M. pneumoniae [2]; 10^-10 moles/liter, day 4) was 175 ± 23. The “Relative Activity Days Following Infection With M. Pneumoniae” value (M. pneumoniae [2]; 10^-10 moles/liter, day 5) was 150 ± 19, the “Relative Activity Days Following Infection With M. Pneumoniae” value (M. pneumoniae [2]; 10^-10 moles/liter, day 6) was 135 ± 16 and the “Relative Activity Days Following Infection With M. Pneumoniae” value (M. pneumoniae [2]; 10^-10 moles/liter, day 7) was 115 ± 23. For the same compound, the “Relative Activity 7 days post infection” value (M. pneumoniae [2]; 10^-6 moles/liter) was 255 ± 16, the “Relative Activity 7 days post infection” value (M. pneumoniae [2]; 10^-7 moles/liter) was 255 ± 16 and the “Relative Activity 7 days post infection” value (M. pneumoniae [2]; 10^-8 moles/liter) was 260 ± 10. The “Relative Activity 7 days post infection” value (M. pneumoniae [2]; 10^-9 moles/liter) was 263 ± 12, the “Relative Activity 7 days post infection” value (M. pneumoniae [2]; 10^-10 moles/liter) was 114 ± 22 and the “Relative Activity 7 days post infection” value (M. pneumoniae [2]; 10^-14 moles/liter) was 125 ± 23. The “Relative Activity 7 days post infection” value (M. pneumoniae [2]) was 124 ± 18, the “RA of rings exposed to M. pneumoniae compared with uninfected controls” value (M. pneumoniae [2]; at least 10^-9 M) was “indistinguishable from uninfected controls” and the “Relative Activity 7 Days Following Infection With M. Pneumoniae” value (M. pneumoniae [2]; culture A, 2,4 DMP added at -1 hours) was 268 ± 6.
